The source of these data is paper PMC10811509 (Advanced Science, 2023).

No end group written: not given here.

Data set [1] deals with human neurons differentiated from H9 human embryonic stem cells. Nature of the data set: Neurite outgrowth in human neurons. The format is cell-based.
Procedure: Human neurons were differentiated from neural progenitor cells (NPCs), which are derived from human embryonic stem cells (hESCs), WA09 (also known as H9). hESCs were maintained on inactivated mouse embryonic fibroblasts (MEFs) in hESC‐media comprising DMEM/F12 (GIBCO) with MEM non‐essential amino acids (MEM NEAA; GIBCO), sodium bicarbonate (14 mM; Sigma‐Aldrich), L‐glutamine (1 mM; Sigma‐Aldrich), β‐mercaptoethanol (100 µM; Merck Millipore, Billerica, MA, USA), knockout serum replacement (20% v/v; GIBCO), and bFGF (10 ng mL^−1; R&D systems, McKinley Place, MN, USA). MEFs were collected from E13.5 CrljOri:CD1 (ICR) mice (Orientbio, Seongnam, Republic of Korea) and inactivated with 10 µg mL^−1 of mitomycin C (AG Scientific, San Diego, CA, USA) in 2 h. hESC colonies were dissociated with Collagenase IV and plated onto Petri dishes in hESC‐media to form embryoid bodies (EBs). […] The treatment was continued for a week, followed by plating onto growth factor reduced matrigel (BD biosciences)‐coated dishes in DMEM/F12 + glutamax (GIBCO) with N2 and B27 supplements (N2/B27 media) and laminin (1 mg mL^−1; GIBCO). […]
Human NPCs were differentiated into neurons for 2 d and the media was replaced by fresh media. […] The neurite of a neuron measured from the soma to the tip was analyzed using Neuron J program of Fiji software.^[ [81] ^]
The subject of data set [2] is Aβ in hippocampi of C57BL/6J mice. Nature of the data set: Immunohistochemistry of hippocampus after stereotaxic peptide injection, Aβ (6E10, thioflavin‐S). Particulars: hippocampal injection of Aβ40 (100 µM) and APP‐C31 (200 µM), 1 µL; 10 days; n = 3. The format is in vivo, mouse.
Data set [3] relates to SH‐SY5Y cells. Nature of the data set: Annexin V staining (apoptosis) after microinjection. Particulars: 24 h; for Pearson's coefficient (r), annexin V / Texas Red‐labeled dextran: n = 3–5. As to the method:
(§1) Cell survival measurements were described in detail in the experimental section. […] White arrows indicate apoptotic cells microinjected with peptide samples. […] Scale bar = 100 µm.
After 24 h incubation, the cells were washed with annexin‐binding buffer and stained with annexin V‐Alexa Fluor 488 for detecting apoptosis following the manufacturer's instruction (FITC Annexin V/Dead Cell Apoptosis Kit; V13241, Invitrogen). Fluorescent responses of annexin V and Texas Red‐labeled dextran were identified by a microscope with a GFP light cube [excitation at 470 (±22) nm and emission at 525 (±50) nm] and a Cy5 light cube [excitation at 628 (±40) nm and emission at 685 (±40) nm], respectively. At least five randomly selected fields per conditions were captured with a microscope. Pearson's correlation coefficient for the indication of co‐localization was calculated with the Coloc2 plugin in Fiji software.^[ [79] ^]

In data set [4] the test system is SH‐SY5Y cells. Briefly: Cell viability after microinjection. As to the method: as §1
Experiments were performed at least in triplicate.

The target of another data set is T1, Aβ40 (Homo sapiens, UniProt P05067).
T1 construct: purchased Peptide Institute, Inc. (Osaka, Japan) or Anaspec (Fremont, CA, USA)
Nature of the data set: ITC, APP‐C31 binding to Aβ40. Particulars: read-out: binding affinity (Kd). As to the method: Titration experiments composed of 28 injections were conducted. The injection volume was 2 µL for the first injection to minimize effects of bubbles and 10 µL for the remaining injections. […] The initial delay was 1800 s and the reference power was 10 µcal s^−1. […] The binding isotherms after baseline correction were fitted to the one set of sites binding model incorporated in the MicroCal Origin 7.0 software.^[ [84] ^]
Figure S10. Interaction of Ab40 with APP-C31 monitored by ITC. The ITC thermogram (upper panel) and binding isotherm (lower panel) were obtained upon titration of APP-C31 into Ab40. The Kd value was calculated from three independent measurements. Conditions: [Ab40] = 30 µM; [APP-C31] = 600 µM; 20
(ITC needs no label: the signal is the heat of the interaction.)

In data set [5] the test system is Iba1‐positive microglial cells in hippocampi of C57BL/6J mice. Nature of the data set: Immunohistochemistry of hippocampus after stereotaxic peptide injection, microglia (Iba1). In kind it is in vivo, mouse. The settings on record: hippocampal injection of Aβ40 (100 µM) and APP‐C31 (200 µM), 1 µL; 10 days; n = 5. As to the method:
15 neurons were analyzed per each condition. […] Scale bar = 100 µm. […] Scale bar = 200 µm. f) Quantification results of the 6E10‐positive area and Iba1‐positive cells, calculated based on the fluorescence signals.
All experiments were performed in accordance with approved animal protocols and guidelines established by Korea Research Institute of Bioscience and Biotechnology (KRIBB). C57BL/6J (11 weeks old; 30 g) were anesthetized by the intraperitoneal injection of tribromoethanol (320 mg kg^−1, i.p.) and positioned in a stereotaxic apparatus. […] All infusions were given using a Hamilton syringe equipped with a 26‐gauge beveled needle and attached to a Nanojet stereotaxic syringe pump (Chemyx, Inc., TX, USA). Infusions were delivered at a rate of 0.2 µL min^−1. […]
Mice were perfused with phosphate‐buffered saline (GIBCO) and 4% paraformaldehyde (PFA) solution, and then the brains were post‐fixed with 4% PFA overnight and dehydrated with 30% sucrose solution. […] Immunofluorescence staining was performed as previously described^[ [83] ^] using anti‐Aβ antibody (6E10; 1:1,000), anti‐APP antibody (Y188; 1:500), anti‐Iba1 antibody (1:1,000, Wako Life Sciences Inc., Japan), an appropriate fluorescence‐conjugated secondary antibody, and Hoechst 33 258 (1:10,000; Life Technologies, CA, USA) for counterstaining. […]

The mark [6] stands for this setting: APP‐C31 (10 µM) or Aβ40 (10 µM) alone.

Usually cell viability stands for a per cent measure of how many cells are alive, often set against a control. Read a high cell viability as less harm to the cells.

T1 sequence (P05067 672-711): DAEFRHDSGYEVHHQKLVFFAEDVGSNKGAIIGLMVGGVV

Regarding “AAVTPEERHLSKMQQNGYENPTYKFFEQMQN [APP‐C31]”, the averaged neurite length result in data set [1] (Aβ40 20 µM with stoichiometric or suprastoichiometric APP‐C31, 24 h) is “further decreased”. For the same sequence, the neurite morphology entry in data set [1] (Aβ40 20 µM with various concentrations of APP‐C31, 72 h) is given as “fragmentation of neurites”. The “6E10‐positive area vs Aβ40 alone” value in data set [2] was “significantly enhanced”. The “green fluorescence of annexin V” value is reported as “did not significantly show the green fluorescence of annexin V” in the data set on SH‐SY5Y cells [3] (setting [6]); “intense green fluorescence of annexin V” in the data set with SH‐SY5Y cells [3] (both APP‐C31 (10 µM) and Aβ40 (10 µM)). In addition, the “Pearson's coefficient (r), annexin V / Texas Red‐labeled dextran” value in the data set on SH‐SY5Y cells [3] (setting [6]) is on record as “≈ 0.2”; in the data set on SH‐SY5Y cells [3] (both APP‐C31 (10 µM) and Aβ40 (10 µM), **p < 0.01), “≈ 0.6”. Also, the cell viability in the data set with SH‐SY5Y cells [4] (10 µM) stood at 86%; with SH‐SY5Y cells [4] (Cu(II)–Aβ40 (10 µM) with APP‐C31 (10 µM), 24 h, n = 3–5), 78%. In addition, the Kd at Aβ40 came out at 150 µM. Moreover, in data set [5], the “number of Iba1‐positive microglial cells vs Aβ40 only” value came out at 3.7 fold.
